{"source": "patent US20200268735A1", "about": "“Combination Therapy of Lasmiditan and a CGRP Antagonist for Use in the Treatment of Migraine” (Eli Lilly and Company, priority 2017, published 2020)", "origin": "cited, not measured here", "key": {"[1]": {"conditions": "SPARTAN, lasmiditan 200 mg, p<0.001"}, "[2]": {"conditions": "SAMURAI, lasmiditan 200 mg, p<0.001"}, "[3]": {"conditions": "for reduction in mean monthly migraine headache days: placebo 2.3 days"}}, "note": "Read-outs that look alike come from different tables or passages of the source."}
{"molecule": "CN1CCC(C(=O)c2cccc(NC(=O)c3c(F)cc(F)cc3F)n2)CC1", "note": "[lasmiditan, 2,4,6-trifluoro-N-[6-(1-methyl-piperidin-4-ylcarbonyl)-pyridin-2-yl]-benzamide]", "values": [{"measurement": "severity of most treatment-emergent adverse events", "setting": "after the first dose", "result": "mild-to-moderate"}, {"measurement": "headache pain-free and MBS-free endpoints, other dose groups compared to placebo", "setting": "lasmiditan 100 mg, 50 mg, both endpoints", "result": "significance was also noted"}, {"measurement": "most frequently reported TEAEs after the first dose", "setting": "≥2% and greater than placebo", "result": "dizziness, paresthesia, somnolence, fatigue, nausea, and lethargy"}, {"measurement": "proportion of patients headache pain-free at 2 hours post-first dose", "setting": "[1]; placebo 21.3%", "result": 38.8, "unit": "%"}, {"measurement": "proportion of patients most bothersome symptom (MBS)-free at 2 hours post-first dose", "setting": "[1]; placebo 33.5%", "result": 48.7, "unit": "%"}, {"measurement": "proportion of patients headache pain-free at 2 hours post-first dose", "setting": "[2]; placebo 15.3%", "result": 32.2, "unit": "%"}, {"measurement": "proportion of patients most bothersome symptom (MBS)-free at 2 hours post-first dose", "setting": "[2]; placebo 29.5%", "result": 40.7, "unit": "%"}]}
{"molecule": "galcanezumab: monoclonal antibody targeting calcitonin gene-related peptide (CGRP) (antibody, chains of the INN, looked up, V domains shown) VH: QVQLVQSGAEVKKPGSSVKVSCKASGYTFGNYWMQWVRQAPGQGLEWMGAIYEGTGKTVYIQKFADRVTITADKSTSTAYMELSSLRSEDTAVYYCARLSDYVSGFGYWGQGTTVTVSS VL: DIQMTQSPSSLSASVGDRVTITCRASKDISKYLNWYQQKPGKAPKLLIYYTSGYHSGVPSRFSGSGSGTDFTLTISSLQPEDFATYYCQQGDALPPTFGGGTKVEIK", "values": [{"measurement": "adverse events significantly more frequent versus placebo", "setting": "[3]; 240 mg group", "result": "significantly more injection site erythema"}, {"measurement": "all key secondary endpoints versus placebo", "setting": "[3]; both doses (120 and 240 mg)", "result": "superior to placebo"}, {"measurement": "adverse events significantly more frequent versus placebo", "setting": "[3]; both galcanezumab doses", "result": "significantly more injection site reactions and injection site pruritus"}, {"measurement": "reduction in mean monthly migraine headache days", "setting": "[3]; galcanezumab 120 mg once monthly", "result": 4.3, "unit": "days"}, {"measurement": "reduction in mean monthly migraine headache days", "setting": "[3]; galcanezumab 240 mg once monthly", "result": 4.2, "unit": "days"}, {"measurement": "most common treatment-emergent adverse event", "setting": "[3]; reported at similar rates in all treatment groups", "result": "Injection site pain"}]}
